Data published in ChEMBL document CHEMBL1143499, “Fused pyrimidine based inhibitors of phosphodiesterase 7 (PDE7): synthesis and initial structure-activity relationships” (Bioorg Med Chem Lett, 2005).

How the values were obtained:
[1] = Relative binding to Phosphodiesterase 1 and Phosphodiesterase 7, ratio of IC50
[2] = Relative binding to Phosphodiesterase 2 and Phosphodiesterase 7, ratio of IC50
[3] = Relative binding to Phosphodiesterase 3 and Phosphodiesterase 7, ratio of IC50
[4] = Relative binding to Phosphodiesterase 4 and Phosphodiesterase 7, ratio of IC50
[5] = Relative binding to Phosphodiesterase 5 and Phosphodiesterase 7, ratio of IC50
[6] = Inhibition of Phosphodiesterase 7
[7] = Inhibition of Phosphodiesterase 1
[8] = target: cGMP-dependent 3',5'-cyclic phosphodiesterase (Homo sapiens, UniProt O00408); test: Inhibition of Phosphodiesterase 2
[9] = Inhibition of Phosphodiesterase 4
[10] = Inhibition of Phosphodiesterase 5
Phosphodiesterase 3 = Phosphodiesterase 3 (Homo sapiens, UniProt Q14432+Q13370); test: Inhibition of Phosphodiesterase 3; assay type: protein assay

Sequence of cGMP-dependent 3',5'-cyclic phosphodiesterase (O00408 whole entry): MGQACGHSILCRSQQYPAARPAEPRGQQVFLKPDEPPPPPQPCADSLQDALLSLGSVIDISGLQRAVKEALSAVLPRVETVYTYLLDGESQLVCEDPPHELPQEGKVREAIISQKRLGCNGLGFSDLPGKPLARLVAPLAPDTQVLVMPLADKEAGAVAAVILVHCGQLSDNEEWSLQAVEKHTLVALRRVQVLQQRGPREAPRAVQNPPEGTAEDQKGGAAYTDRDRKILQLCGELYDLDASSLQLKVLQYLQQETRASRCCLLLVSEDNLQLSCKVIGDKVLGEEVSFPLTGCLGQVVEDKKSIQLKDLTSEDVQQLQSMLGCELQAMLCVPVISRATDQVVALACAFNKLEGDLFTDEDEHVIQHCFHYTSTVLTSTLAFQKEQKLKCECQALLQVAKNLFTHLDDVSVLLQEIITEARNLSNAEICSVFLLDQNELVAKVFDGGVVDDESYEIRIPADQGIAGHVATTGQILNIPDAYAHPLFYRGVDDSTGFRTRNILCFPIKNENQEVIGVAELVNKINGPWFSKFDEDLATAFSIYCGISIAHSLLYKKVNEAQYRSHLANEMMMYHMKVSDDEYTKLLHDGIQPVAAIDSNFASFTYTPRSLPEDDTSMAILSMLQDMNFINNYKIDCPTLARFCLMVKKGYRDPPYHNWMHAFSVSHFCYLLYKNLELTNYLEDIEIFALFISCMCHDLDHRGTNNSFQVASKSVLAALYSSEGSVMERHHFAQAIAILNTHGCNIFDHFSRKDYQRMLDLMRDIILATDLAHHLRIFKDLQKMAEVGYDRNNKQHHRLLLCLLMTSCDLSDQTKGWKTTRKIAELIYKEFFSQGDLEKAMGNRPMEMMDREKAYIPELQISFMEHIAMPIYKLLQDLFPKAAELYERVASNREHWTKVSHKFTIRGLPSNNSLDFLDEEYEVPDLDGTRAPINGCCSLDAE

| Ratio [1] | Ratio [2] | Ratio [3] | Ratio [4] | Ratio [5] | IC50 [6] [µM] | IC50 [7] [µM] | IC50 [8] [µM] | IC50 [9] [µM] | IC50 [10] [µM] | IC50 (Phosphodiesterase 3) [µM] | SMILES |
| --- | --- | --- | --- | --- | --- | --- | --- | --- | --- | --- | --- |
| 157 | 27 | 392 | 54 | 8 | 0.06 |  |  |  |  |  | CCOC(=O)c1sc(Nc2nc(N3CCNCC3)c3c(n2)N(Cc2ccc(S(C)(=O)=O)cc2)CCC3)nc1C |
| 166 | 114 | 734 | 105 | 182 | 0.03 |  |  |  |  |  | CCOC(=O)c1sc(Nc2nc(N3CCNCC3)c3c(n2)N(Cc2cc(OC)c(OC)c(OC)c2)CCC3)nc1C |
| 64 |  | 206 | 67 | 64 | 0.07 |  |  |  |  |  | CCOC(=O)c1sc(Nc2nc(N3CCN(C)CC3)c3c(n2)N(Cc2cc(OC)c(OC)c(OC)c2)CCO3)nc1C |
|  |  |  |  |  | 0.011 | 0.95 | 0.95 | 0.55 | 0.011 | 2.97 | CCOC(=O)c1sc(Nc2nc(NCc3ccc(S(N)(=O)=O)cc3)c3c(ncn3CC)n2)nc1C |
| 39 |  | 174 | 27 | 9 | 0.15 |  |  |  |  |  | CCOC(=O)c1sc(Nc2nc(N3CCN(C)CC3)c3c(n2)N(Cc2cc(OC)c(OC)c(OC)c2)CCC3)nc1C |
| 556 |  | 259 | 3 | 8 | 0.09 | 50 |  | 0.27 | 0.72 | 23.3 | CCOC(=O)c1sc(Nc2nc(NC)c3ncn(Cc4ccc(S(C)(=O)=O)cc4)c3n2)nc1C |
| 1.5 | 11 | 3.8 | 7.3 | 1.8 | 0.15 | 0.22 | 1.7 |  | 0.27 | 0.58 | CCOC(=O)c1sc(Nc2nc(NCc3ccc(OC)c(OC)c3)c3c(ncn3CC)n2)nc1C |
| 576 |  | 1880 | 795 | 362 | 0.006 |  |  |  |  |  | CCOC(=O)c1sc(Nc2nc(N3CCNCC3)c3c(n2)N(Cc2cc(OC)c(OC)c(OC)c2)CC3)nc1C |
|  |  |  |  |  | > 10 | > 10 | > 10 | 0.74 | > 10 | > 10 | COc1ccc(C2CNC(=O)C2)cc1OC1CCCC1 (stereo not given) [ROLIPRAM] |
| 162 | 33 | 390 | 35 | 13 | 0.1 |  |  |  |  |  | CCOC(=O)c1sc(Nc2nc(N3CCNCC3)c3c(n2)N(Cc2cccnc2)CCC3)nc1C |
| 352 |  | 1030 | 94 | 1 | 0.02 |  |  |  |  |  | CCOC(=O)c1sc(Nc2nc(N3CCNCC3)c3c(n2)N(Cc2ccc(S(C)(=O)=O)cc2)CC3)nc1C |
| 156 |  | 315 | 189 | 104 | 0.02 |  |  |  |  |  | CCOC(=O)c1sc(Nc2nc(N3CCN(C)CC3)c3c(n2)N(Cc2cc(OC)c(OC)c(OC)c2)CC3)nc1C |
| 1170 |  | 3850 | 1200 | 1240 | 0.005 |  |  |  |  |  | CCOC(=O)c1sc(Nc2nc(N3CCNCC3)c3c(n2)N(Cc2cc(OC)c(OC)c(OC)c2)CCO3)nc1C |
|  |  |  |  |  | > 10 | > 10 |  | 4.6 | 0.011 |  | CCCc1nn(C)c2c(=O)[nH]c(-c3cc(S(=O)(=O)N4CCN(C)CC4)ccc3OCC)nc12 |
|  |  |  | 6 |  | 0.34 |  |  |  |  |  | CCOC(=O)c1sc(Nc2nc(NC)c3c(n2)N(Cc2ccc(S(C)(=O)=O)cc2)CC3)nc1C |
| 35 |  | 154 | 13 | 7 | 0.15 |  |  |  |  |  | CCOC(=O)c1sc(Nc2nc(N3CCN(O)CC3)c3c(n2)N(Cc2ccccn2)CC3)nc1C |
